Data as given in the NIST ThermoML archive (doi:10.1016/j.fluid.2008.12.007).

Conditions: Liquid, Ebulliometric method (Recirculating still)

C=CCCCC [hex-1-ene]
Conditions	vapor or sublimation pressure [kPa]
298.07 K	24.93
300.32 K	27.41
302.55 K	30.08
304.54 K	32.46
306.31 K	34.84
308.2 K	37.48
309.84 K	39.96
311.51 K	42.53
312.98 K	44.96
314.38 K	47.42
315.79 K	49.92
317.17 K	52.53
318.43 K	54.98
319.62 K	57.39
320.84 K	59.94
322.02 K	62.51
323.16 K	64.97
324.21 K	67.45
325.25 K	69.88
326.29 K	72.44
327.32 K	75.04
328.25 K	77.45
329.21 K	79.98
330.11 K	82.42
331.01 K	84.93
331.86 K	87.33
332.74 K	89.92
333.62 K	92.54
334.38 K	94.82
335.24 K	97.45
336.48 K	101.3

C1CCCCC1 [cyclohexane]
Conditions	vapor or sublimation pressure [kPa]
313.4 K	24.95
315.76 K	27.43
318.05 K	29.95
320.11 K	32.46
322.06 K	34.9
323.92 K	37.43
325.66 K	39.94
327.32 K	42.42
328.9 K	44.91
330.44 K	47.45
331.94 K	49.92
333.33 K	52.43
334.6 K	54.76
335.99 K	57.44
337.31 K	59.98
338.5 K	62.44
339.65 K	64.86
340.81 K	67.47
341.92 K	69.94
342.99 K	72.45
344.05 K	74.96
344.09 K	75.07
345.11 K	77.54
346.07 K	79.92
347.06 K	82.52
348.01 K	85.03
348.86 K	87.27
349.84 K	89.99
350.73 K	92.48
351.55 K	94.84
353.73 K	101.33

C1=CCCCC1 [cyclohexene]
Conditions	vapor or sublimation pressure [kPa]
315.56 K	24.94
318.01 K	27.43
320.26 K	29.98
322.34 K	32.47
324.31 K	34.95
326.23 K	37.52
327.96 K	39.98
329.61 K	42.45
331.23 K	45.01
332.73 K	47.48
334.22 K	50.02
335.62 K	52.51
336.98 K	55.02
338.27 K	57.52
339.52 K	59.98
340.73 K	62.46
341.94 K	65.02
343.07 K	67.51
344.16 K	69.97
345.27 K	72.51
346.3 K	74.96
347.33 K	77.48
348.35 K	80.02
349.31 K	82.52
350.26 K	84.99
351.18 K	87.45
352.09 K	89.96
352.97 K	92.46
353.85 K	95.01
354.71 K	97.52
355.97 K	101.33

CCCCCC [hexane]
Conditions	vapor or sublimation pressure [kPa]
303.16 K	25.04
305.43 K	27.5
307.43 K	29.95
309.54 K	32.44
311.47 K	35.07
313.25 K	37.51
314.84 K	39.98
316.52 K	42.44
317.92 K	45.02
319.49 K	47.45
320.76 K	50.01
322.26 K	52.52
323.37 K	55.03
324.59 K	57.32
325.89 K	60.07
326.95 K	62.46
328.09 K	64.77
329.19 K	67.22
330.16 K	69.64
331.45 K	72.45
332.28 K	74.82
333.48 K	77.48
334.39 K	79.84
335.33 K	82.31
336.26 K	84.88
337.14 K	87.26
338.02 K	89.85
338.91 K	92.35
339.73 K	94.85
340.44 K	97.02
341.79 K	101.32
